{"source": "patent US8492341B2", "about": "“Amyloid-β binding peptides” (Alzyme Pty Ltd., priority 2006, dated 2013)", "key": {"PS/APP transgenic mice": {"system": "PS/APP transgenic mice", "assay": "Efficacy study: i.c.v. infusion in PS/APP transgenic mice, Aβ and GFAP immunohistochemistry", "type": "in vivo", "details": "6-month-old PS/APP mice, 28 days, vs Vehicle (PBS)", "excerpt": "Peptide analogue MP2 [Ac-Asn-Arg-Thr-Pro-Gln-Met-Leu-Lys-Arg-NH2 (SEQ ID NO:2)] was delivered directly into the brain by i.c.v administration. For i.c.v infusion into the cerebrospinal fluid, a cannula is inserted into the right lateral ventricle of the brain (antero-posterior: −0.3 mm; medium-line: −1 mm; dorso-ventral: −2.2 mm) of 3-month and 6-month old PS/APP transgenic mice using a Kopf (Tujunga, Calif.) stereotaxic instrument (Permanne et al., 2002 “Reduction of amyloid load and cerebral damage in a transgenic mouse model of Alzheimer's disease by treatment with a β-sheet breaker peptide” FASEB J.).\nThe coordinates are measured from the Bregma and the surface of the skull according to the brain atlas of Franklin and Paxinos (The Mouse Brain in Stereotaxic Coordinates (1997) Academic Press, San Diego). […]\nFor immunohistochemistry, tissue sections are cut and series of sections processed for peroxidase immunohistochemistry with antibodies specific for beta amyloid (1-42) and astrocytic activation (GFAP). […] Reactive astrocytes (forming a halo around Aβ deposits) were detected using antibody GFAP (1:500 dilution in DAKO antibody diluent; polyclonal, DAKO); Aβ detected using affinity purified WO2 antibody (1:10,000 dilution in Tris buffer (pH 7.6); raised against amino acid residues 5-8 of human Aβ, monoclonal). […]"}, "[1]": {"assay": "In vitro peptide stability in 10% rodent brain homogenate", "type": "in vitro ADME, rat", "procedure": "For the peptide stability assay in vitro, both 15merTNP and peptide analogue MP2 were incubated separately with fresh 10% rodent brain homogenate to model degradation in tissues. In order to create a physiological dose of peptide in the in vitro assay, both radioactive (^3H-labelled; hot) and non-radioactive (cold) peptides were combined in a set ratio. Cold peptide was added at a dose of […] per ml of 10% brain homogenate. Hot peptide was added at a dose of 250 μCi per ml 10% brain homogenate. Following the addition of hot and cold peptide; the homogenate was vortexed and incubated for different time points. The reaction was stopped by adding complete protease inhibitor cocktail and the samples analysed.\nThe biological stability of the peptides was evaluated by incubating them (90 nmol) in fresh 10% rodent brain homogenate for different times at 37° C. The amount of intact peptide was estimated by running the supernatant of the homogenate on a 16% Tricine gel to separate peptide that had not had its amino acid sequence degraded. FIG. 3 illustrates the relative stability of 15merTNP and peptide analogue MP2 over two hours run on a 16% Tricine gel from time 0-120 min with samples run in duplicate. The values correspond to the in vitro half-life, which is defined as the time needed for 50% degradation of the peptide."}, "human Aβ1-42": {"target": "human Aβ1-42 (Homo sapiens, UniProt P05067)", "sequence (P05067 672-713)": "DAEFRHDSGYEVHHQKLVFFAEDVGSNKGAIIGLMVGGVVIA", "assay": "DCF fluorescence assay of H2O2 production (SOD-like activity) by human Aβ1-42", "type": "biochemical", "details": "P<0.001", "procedure": "The three candidate peptides (15merTNP, 6merPLP and 6merMTM) were examined to determine whether they could attenuate Aβ's SOD-like activity in vitro. A DCF fluorescence assay was used to assess the efficacy of these peptides on altering the production of physiological (brain) concentrations (200 nM) of human Aβ1-42.\nAβ species were prepared and the assay run as described previously (i.e. Aβ1-42 at 200 nM and Copper and Dopamine concentrations remain unchanged). Peptide analogue MP2 (SEQ ID NO:2) was added to Aβ1-42+Cu solutions at ratios ranging from 0.005:1 to 10.0:1 (i.e. a ration of 0.005:1 would contain 1 nM of respective peptide). The peptide was dissolved in PBS pH7.5. The effect of MP2 on H2O2 production by human Aβ1-42 was determined in triplicate in three separate experiments (i.e. n=9) for doses ranging from 100 to 2000 nM (FIG. 1). These were compared against the level of H2O2 produced by human Aβ1-42 [test peptide analogue MP2+positive control peptide 15merTNP; three experiments done in triplicate, […]]. All data are presented as means±SEM.\nFor all assays run, the 15merTNP peptide (SEQ ID NO: 3), was included as a positive control for the assay and for comparing its activity with that of the modelled peptide analogue MP2. The effect of 15merTNP (200 nM) on H2O2 production by human Aβ1-42, was determined in triplicate in each of the 12 DCF assays (i.e. n=36) performed in this study."}, "Aβ": {"target": "Aβ (Homo sapiens, UniProt P05067)", "sequence (P05067 672-713 limits assumed)": "as the sequence (P05067 672-713) above", "assay": "Copper-induced Aβ oligomer generation (SDS-PAGE, WO2 immunoblot)", "type": "biochemical", "details": "Aβ 5 uM, Cu+2 25 μM, 0-1000 μM peptide, 37 C, 24 hours; vs reverse peptide control", "procedure": "Incubation of Aβ with copper generates cross-linked oligomeric species (Atwood et al., 2000: Cell Mol Biol, 46: 777-783; Atwood et al., 2004: Biochemistry, 43: 560-568). In this experiment, Aβ (5 uM) is incubated with Cu+2 (25 μM) and 0-1000 μM of the modified peptides at 37 C for 24 hours. After the incubation period, 20 ng is loaded onto an SDS-PAGE gel and immunoblotted with WO2 antibody. Compared to the reverse peptide control, all the modified peptides inhibited the generation of Aβ oligomers at various concentration."}}, "data": [{"substance": "Ac-NRTPQMLKR-NH2 [MP2, Ac-Asn-Arg-Thr-Pro-Gln-Met-Leu-Lys-Arg-NH2]", "values": [{"measurement": "reduction in the estimated total number of Aβ immunoreactive deposits", "setting": "PS/APP transgenic mice; 60 nmoles daily i.c.v.", "result": 26.4, "unit": "%"}, {"measurement": "total number of GFAP immunoreactive halos", "setting": "PS/APP transgenic mice; 60 nmoles/day i.c.v.", "result": "reduction in the total number of GFAP immunoreactive halos, although significance was only reached in the middle and posterior cortical regions"}, {"measurement": "Stability in rat brain homogenate (in vitro half-life)", "setting": "[1]; 10% brain homogenate, 37° C., listed as Peptide analogue MP2", "result": ">24", "unit": "h"}, {"measurement": "stability relative to 15merTNP", "setting": "[1]; 10% rodent brain homogenate, 24 hour time period", "result": "significantly more stable"}, {"measurement": "half-life at 2.5 mmol per ml", "setting": "[1]; rat, fresh 10% brain homogenate, 10% brain homogenate, 37° C.", "result": "> 24", "unit": "h"}, {"measurement": "H2O2 levels produced by human Aβ1-42", "setting": "human Aβ1-42; 100 and 200 nM peptide", "result": "significant reduction"}, {"measurement": "H2O2 levels produced by human Aβ1-42", "setting": "human Aβ1-42; peptide doses ≧1000 nM", "result": "significantly increased"}, {"measurement": "inhibition of Aβ oligomer formation", "setting": "Aβ", "result": "most potent"}]}]}
